Columns and labels:
Assay in all cases: LC-MS/MS proteome profiling
Format in all cases: cell-based, Homo sapiens
ZNF337 = details: SK5527 vs DMSO (24h)
Protocol: (§1) Analysis of the mass spectrometry data was performed in DiaNN (version 1.9). Precursor false discovery rate was set at 1%. Spectra were searched against the Homo sapiens protein sequences in the Uniprot database (database release version of 2024_01), containing 20,597 sequences (www.uniprot.org) and the imbedded protein contaminant list. Enzyme specificity was set as C-terminal to arginine and lysine, also allowing cleavage at proline bonds with a maximum of 2 missed cleavages. Variable modifications were set to oxidation of methionine residues and acetylation of protein N-termini while fixed modification was set to carbamidomethylation of cystein residues. Matching between runs was enabled. Mainly default settings were used, except for the addition of a 400-900 m/z precursor mass range filter and MS1 and MS2 mass tolerance was set to 10 and 20 ppm respectively.
(§2) Further data analysis of the results was performed with an in-house script in the R programming language.
(§3) Protein expression matrices were prepared as follows: the DIA-NN main report output table was filtered at a precursor and protein library q-value cut-off of 1 % and only proteins identified by at least one proteotypic peptide were retained. After pivoting into a wide format, iBAQ intensity columns were then added to the matrix using the DIAgui’s R package get_IBAQ function. PG MaxLFQ intensities were log2 transformed and replicate samples were grouped. Proteins with less than 3 valid values in at least one group were removed and missing values were imputed from a normal distribution centered around the detection limit (package DEP) leading to a list of 7,759 quantified proteins in the experiment, used for further data analysis. To compare protein abundance […]
(§4) 24h MK-5108 vs 24h DMSO sample groups), statistical testing for differences between two group means was performed, using the package limma. Statistical significance for differential regulation was set to a false discovery rate (FDR) of < 0.05 and |log2FC| = 2.

ZSCAN22 = details: SK5527 vs DMSO
Protocol: as §1, §2, §3, §4

ZNF7 = details: SK5527 vs DMSO (24h)
Protocol: as §1, §2, §3, §4

JMJD1C = details: SK5527 vs DMSO (24h)
Protocol: as §1, §2, §3, §4

TROAP = details: SK5527 vs DMSO
Protocol: as §1, §2, §3, §4

PLCXD1 = details: SK5527 vs DMSO (24h)
Protocol: as §1, §2, §3, §4

ARHGEF18 = details: SK5527 vs DMSO (24h)
Protocol: as §1, §2, §3, §4

SMTN = details: SK5527 vs DMSO (24h)
Protocol: as §1, §2, §3, §4

RSF1 = details: SK5527 vs DMSO (24h)
Protocol: as §1, §2, §3, §4

SP2 = details: SK5527 vs DMSO (24h)
Protocol: as §1, §2, §3, §4

SIPA1L3 = details: SK5527 vs DMSO (24h)
Protocol: as §1, §2, §3, §4

HAND2 = details: SK5527 vs DMSO (24h)
Protocol: as §1, §2, §3, §4

Cc1cc(Nc2ccc(F)c(CC3(C(=O)N4CCC(F)(CN5CCN(c6ccc(N7CCC(=O)NC7=O)cn6)CC5)CC4)CCN(Cc4cccc(Cl)c4F)CC3)n2)n[nH]1 [SK5527]
logFC ZNF337 (ZNF337): 2.22 | logFC ZSCAN22 (ZSCAN22): -2.09 | logFC ZNF7 (ZNF7): -2.38 | logFC JMJD1C (JMJD1C): 2.49 | logFC TROAP (TROAP): 2.33 | logFC PLCXD1 (PLCXD1): -2.06 | logFC ARHGEF18 (ARHGEF18): -5.19 | logFC SMTN (SMTN): 2.05 | logFC RSF1 (RSF1): 2.45 | logFC SP2 (SP2): -2.23 | logFC SIPA1L3 (SIPA1L3): -3.26 | logFC HAND2 (HAND2): -3.26

Source: publication PMC12670405, “Second-Generation AURKA-Targeting PROTACs: Structural Optimization toward in Vivo Degradation in Neuroblastoma” (Journal of Medicinal Chemistry, 2025)
